pIC50: −log10 of the molar value.
Assays:
[1] = molecular target: α4β7 integrin (Homo sapiens (Human), UniProt P13612+P26010); experiment: Integrin Adhesion Assay: Protocol 4 (MAdCAM-coated plate, RPMI-8866 cells with stable LOF mutation of the ITGB1 gene); format: cell-based; conditions: Protocol 4; RPMI-8866 cells with LOF mutation of ITGB1, MAdCAM; read-out: Mean IC50 α4β7 KO
Procedure, shortened: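 RPMI-8866 cells with CRISPR/Cas9 knockout of ITGB1 (2×10^6/mL) were added to MAdCAM-coated wells with compound (1% DMSO) in HEPES/NaCl buffer with 1 mM MnCl2, 0.1 mM CaCl2 and 1% BSA, then incubated 1 h at 37 °C. After four washes, adherent cells were quantified by CellTiter-Glo luminescence. Percent inhibition versus DMSO and control compound was fitted to 4-parameter curves.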

[2] = molecular target: α4β1 integrin (Homo sapiens (Human), UniProt P05556+P13612); experiment: Integrin Adhesion Assay: Protocol 5 (VCAM-coated plate, RPMI-8866 cells with stable LOF mutation of the ITGB7 gene); format: cell-based; conditions: Protocol 5; RPMI-8866 cells with LOF mutation of ITGB7, VCAM; read-out: Mean IC50 α4β1 KO
Procedure, shortened: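 RPMI-8866 B cells with CRISPR/Cas9 ITGB7 knockout (clonal, verified by flow cytometry) adhered to VCAM-coated wells for 1 h at 37° C in HEPES/NaCl buffer with 1 mM MnCl2, 0.1 mM CaCl2, 1% BSA, 1% DMSO. Bound cells quantified by CellTiter-Glo luminescence after washing; % inhibition versus DMSO and control, 4-parameter fit.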

α4β7 integrin, sequence (P13612 34-1032): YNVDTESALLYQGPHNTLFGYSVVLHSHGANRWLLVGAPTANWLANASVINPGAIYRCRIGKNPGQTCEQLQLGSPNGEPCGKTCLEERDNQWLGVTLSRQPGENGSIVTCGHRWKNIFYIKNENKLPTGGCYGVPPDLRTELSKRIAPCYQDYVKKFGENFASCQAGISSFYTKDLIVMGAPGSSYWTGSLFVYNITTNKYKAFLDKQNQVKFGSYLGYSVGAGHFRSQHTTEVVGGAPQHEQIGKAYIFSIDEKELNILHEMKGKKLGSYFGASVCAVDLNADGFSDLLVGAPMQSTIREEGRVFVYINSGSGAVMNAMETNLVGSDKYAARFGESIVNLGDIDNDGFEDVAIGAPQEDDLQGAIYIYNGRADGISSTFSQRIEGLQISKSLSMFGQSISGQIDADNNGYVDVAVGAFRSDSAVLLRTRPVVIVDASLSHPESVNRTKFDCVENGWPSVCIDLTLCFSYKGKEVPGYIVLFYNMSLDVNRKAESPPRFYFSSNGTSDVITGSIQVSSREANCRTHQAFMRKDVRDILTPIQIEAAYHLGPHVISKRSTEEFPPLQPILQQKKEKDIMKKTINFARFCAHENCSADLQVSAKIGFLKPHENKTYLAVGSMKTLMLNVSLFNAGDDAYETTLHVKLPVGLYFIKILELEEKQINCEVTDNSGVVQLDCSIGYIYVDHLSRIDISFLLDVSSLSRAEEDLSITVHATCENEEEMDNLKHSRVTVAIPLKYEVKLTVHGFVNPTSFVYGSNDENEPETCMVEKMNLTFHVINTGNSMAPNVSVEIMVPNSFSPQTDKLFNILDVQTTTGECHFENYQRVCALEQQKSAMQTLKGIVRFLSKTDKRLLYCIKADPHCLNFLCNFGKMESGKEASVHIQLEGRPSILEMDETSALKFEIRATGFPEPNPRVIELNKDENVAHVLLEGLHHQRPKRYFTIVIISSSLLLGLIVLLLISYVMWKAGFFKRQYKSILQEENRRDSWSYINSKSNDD
α4β7 integrin, sequence (P26010 20-798): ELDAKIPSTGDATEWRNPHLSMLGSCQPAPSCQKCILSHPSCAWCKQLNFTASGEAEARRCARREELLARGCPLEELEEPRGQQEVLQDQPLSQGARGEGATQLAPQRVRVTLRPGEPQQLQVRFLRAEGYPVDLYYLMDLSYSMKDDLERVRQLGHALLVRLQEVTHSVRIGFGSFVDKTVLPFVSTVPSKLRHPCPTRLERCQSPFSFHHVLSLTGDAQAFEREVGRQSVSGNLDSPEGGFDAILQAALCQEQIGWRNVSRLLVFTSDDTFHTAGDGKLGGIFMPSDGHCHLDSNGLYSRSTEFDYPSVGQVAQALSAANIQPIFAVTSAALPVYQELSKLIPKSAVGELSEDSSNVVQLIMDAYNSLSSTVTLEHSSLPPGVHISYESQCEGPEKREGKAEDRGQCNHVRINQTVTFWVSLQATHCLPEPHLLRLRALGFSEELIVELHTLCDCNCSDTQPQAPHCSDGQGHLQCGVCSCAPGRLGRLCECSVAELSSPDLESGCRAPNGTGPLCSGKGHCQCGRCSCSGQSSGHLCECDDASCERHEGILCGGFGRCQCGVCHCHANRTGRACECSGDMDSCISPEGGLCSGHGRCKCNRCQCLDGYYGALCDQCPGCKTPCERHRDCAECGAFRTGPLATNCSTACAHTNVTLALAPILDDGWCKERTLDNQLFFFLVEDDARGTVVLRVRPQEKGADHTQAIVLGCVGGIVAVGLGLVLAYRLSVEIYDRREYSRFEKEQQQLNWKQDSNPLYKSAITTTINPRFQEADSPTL
α4β1 integrin, sequence (P13612 34-1032): as the sequence (P13612 34-1032) above
α4β1 integrin, sequence (P05556 21-798): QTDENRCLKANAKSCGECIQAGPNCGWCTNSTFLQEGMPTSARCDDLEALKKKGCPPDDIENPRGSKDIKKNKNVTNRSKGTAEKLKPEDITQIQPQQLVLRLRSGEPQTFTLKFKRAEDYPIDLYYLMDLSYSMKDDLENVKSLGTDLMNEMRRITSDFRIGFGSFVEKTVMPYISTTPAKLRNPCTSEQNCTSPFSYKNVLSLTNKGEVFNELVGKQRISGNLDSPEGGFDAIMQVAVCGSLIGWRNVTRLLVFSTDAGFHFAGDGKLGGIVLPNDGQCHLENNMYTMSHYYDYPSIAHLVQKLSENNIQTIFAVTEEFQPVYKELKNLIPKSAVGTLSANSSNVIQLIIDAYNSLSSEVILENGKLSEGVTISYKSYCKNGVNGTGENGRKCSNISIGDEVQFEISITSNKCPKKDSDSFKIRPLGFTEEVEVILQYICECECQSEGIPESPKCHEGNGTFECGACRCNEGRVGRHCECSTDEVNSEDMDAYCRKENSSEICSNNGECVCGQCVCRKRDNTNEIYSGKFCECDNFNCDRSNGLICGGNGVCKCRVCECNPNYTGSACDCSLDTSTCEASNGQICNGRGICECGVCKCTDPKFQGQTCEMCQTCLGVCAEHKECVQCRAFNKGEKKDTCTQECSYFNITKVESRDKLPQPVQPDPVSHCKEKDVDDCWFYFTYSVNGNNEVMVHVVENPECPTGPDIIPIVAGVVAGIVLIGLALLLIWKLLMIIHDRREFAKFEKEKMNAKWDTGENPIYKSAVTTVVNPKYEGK

Structure (SMILES) | pIC50 [1] | pIC50 [2]
O=C(O)[C@H](Cc1cccc2c(-c3ncc(CN4CCC(C(F)(F)F)CC4)c4ccccc34)cccc12)NC(=O)C1(C(F)(F)F)CCN(CC(F)(F)F)CC1 [Compound 874] | 7.00 to 8.00 | < 6.00
O=C(O)[C@H](Cc1cccc2c(-c3ncc(CN4CCOCC4)c4ccccc34)cccc12)NC(=O)C1(C(F)(F)F)CCN(CC(F)F)CC1 [Compound 878] | > 8.00 | 6.00 to 7.00
O=C(O)[C@H](Cc1cccc2c(-c3ncc(CN4CCC(C(F)(F)F)CC4)c4ccccc34)cccc12)NC(=O)C1(C(F)(F)F)CCN(CC(F)F)CC1 [Compound 879] | 7.00 to 8.00 | < 6.00
O=C(O)[C@H](Cc1cccc2c(-c3ncc(CN4C5CCCC4CC5)c4ccccc34)cccc12)NC(=O)C1(C(F)(F)F)CCN(CC(F)(F)F)CC1 [Compound 884] | > 8.00 | < 6.00
O=C(O)[C@H](Cc1cccc2c(-c3ncc(CN4CC5CC(C5)C4)c4ccccc34)cccc12)NC(=O)C1(C(F)(F)F)CCN(CC(F)(F)F)CC1 [Compound 885] | > 8.00 | < 6.00
C[C@@H]1CN(Cc2cnc(-c3cccc4c(C[C@H](NC(=O)C5(C(F)(F)F)CCN(CC(F)(F)F)CC5)C(=O)O)cccc34)c3ccccc23)C[C@H](C)N1C1CC1 [Compound 892] | > 8.00 | 6.00 to 7.00
C[C@@H]1CN(Cc2cnc(-c3cccc4c(C[C@H](NC(=O)C5(C(F)(F)F)CCN(CC(F)(F)F)CC5)C(=O)O)cccc34)c3ccccc23)C[C@H](C)N1 [Compound 893] | > 8.00 | 6.00 to 7.00
O=C(O)[C@H](Cc1cccc2c(-c3ncc(CN4CCN(C5CC5)CC4)c4ccccc34)cccc12)NC(=O)C1(C(F)(F)F)CCN(CC(F)F)CC1 [Compound 901] | > 8.00 | 6.00 to 7.00
O=C(O)[C@H](Cc1cccc2c(-c3ncc(CN4CCC(F)CC4)c4ccccc34)cccc12)NC(=O)C1(C(F)(F)F)CCN(CC(F)F)CC1 [Compound 905] | > 8.00 | < 6.00
O=C(O)[C@H](Cc1cccc2c(-c3ncc(CN4CC5CC(C5)C4)c4ccccc34)cccc12)NC(=O)C1(C(F)(F)F)CCN(CC(F)F)CC1 [Compound 907] | > 8.00 | < 6.00
O=C(O)[C@H](Cc1cccc2c(-c3ncc(CN4CC5(CC5)C4)c4ccccc34)cccc12)NC(=O)C1(C(F)(F)F)CCN(CC(F)F)CC1 [Compound 908] | > 8.00 | 6.00 to 7.00
O=C(O)[C@H](Cc1cccc2c(-c3ncc(CN4CCC5(CCC5)C4)c4ccccc34)cccc12)NC(=O)C1(C(F)(F)F)CCN(CC(F)F)CC1 [Compound 909] | > 8.00 | 6.00 to 7.00
CC1(C)CCCN(Cc2cnc(-c3cccc4c(C[C@H](NC(=O)C5(C(F)(F)F)CCN(CC(F)F)CC5)C(=O)O)cccc34)c3ccccc23)C1 [Compound 910] | > 8.00 | < 6.00
O=C(O)[C@H](Cc1cccc2c(-c3ncc(CN4C5CCCC4CC5)c4ccccc34)cccc12)NC(=O)C1(C(F)(F)F)CCN(CC(F)F)CC1 [Compound 911] | > 8.00 | < 6.00
O=C(O)[C@H](Cc1cccc2c(-c3ncc(CN4CCC5(CC4)CC5)c4ccccc34)cccc12)NC(=O)C1(C(F)(F)F)CCN(CC(F)F)CC1 [Compound 912] | > 8.00 | < 6.00
O=C(O)[C@H](Cc1cccc2c(-c3ncc(CN4CCOCC45CC5)c4ccccc34)cccc12)NC(=O)C1(C(F)(F)F)CCN(CC(F)F)CC1 [Compound 914] | > 8.00 | 6.00 to 7.00

Next, values leading:

pIC50 [1] | pIC50 [2] | Structure (SMILES)
7.00 to 8.00 | < 6.00 | CC1CCN(Cc2cnc(-c3cccc4c(C[C@H](NC(=O)C5(C(F)(F)F)CCN(CC(F)(F)F)CC5)C(=O)O)cccc34)c3ccccc23)CCC1(F)F (some centres unmarked) [Compound 875]
> 8.00 | < 6.00 | CC1(C)CCCN(Cc2cnc(-c3cccc4c(C[C@H](NC(=O)C5(C(F)(F)F)CCN(CC(F)(F)F)CC5)C(=O)O)cccc34)c3ccccc23)CC1 [Compound 876]
> 8.00 | < 6.00 | Cc1cc(CN2CCCCC2)cnc1-c1cccc2c(C[C@H](NC(=O)C3(C(F)(F)F)CCN(CC(F)(F)F)CC3)C(=O)O)cccc12 [Compound 880]
7.00 to 8.00 | < 6.00 | O=C(O)[C@H](Cc1cccc2c(-c3ncc(CN4CCCCC4)cc3C(F)(F)F)cccc12)NC(=O)C1(C(F)(F)F)CCN(CC(F)(F)F)CC1 [Compound 881]
> 8.00 | 6.00 to 7.00 | O=C(O)[C@H](Cc1cccc2c(-c3ncc(CN4CCCCC4)cc3C3CC3)cccc12)NC(=O)C1(C(F)(F)F)CCN(CC(F)(F)F)CC1 [Compound 882]
> 8.00 | < 6.00 | O=C(O)[C@H](Cc1cccc2c(-c3ncc(CN4CCC5(CC4)CC5)c4ccccc34)cccc12)NC(=O)C1(C(F)(F)F)CCN(CC(F)(F)F)CC1 [Compound 883]
> 8.00 | < 6.00 | O=C(O)[C@H](Cc1cccc2c(-c3ncc(CN4CCC5(CCC5)C4)c4ccccc34)cccc12)NC(=O)C1(C(F)(F)F)CCN(CC(F)(F)F)CC1 [Compound 886]
> 8.00 | < 6.00 | O=C(O)[C@H](Cc1cccc2c(-c3ncc(CN4CC5(CC5)C4)c4ccccc34)cccc12)NC(=O)C1(C(F)(F)F)CCN(CC(F)(F)F)CC1 [Compound 887]
> 8.00 | < 6.00 | O=C(O)[C@H](Cc1cccc2c(-c3ncc(CN4CCCCC4)c4ccccc34)cccc12)NC(=O)C1(C(F)(F)F)CCN(CC(F)F)CC1 [Compound 888]
> 8.00 | < 6.00 | COc1cc(CN2CCC(C)(C)CC2)cnc1-c1cccc2c(C[C@H](NC(=O)C3(C(F)(F)F)CCN(CC(F)(F)F)CC3)C(=O)O)cccc12 [Compound 890]
6.00 to 7.00 | < 6.00 | O=C(O)[C@H](Cc1cccc2c(-c3cc(C(F)(F)F)c(CN4CCCCC4)cn3)cccc12)NC(=O)C1(C(F)(F)F)CCN(CC(F)(F)F)CC1 [Compound 891]
> 8.00 | 6.00 to 7.00 | CC(C)Oc1cc(CN2CCCCC2)cnc1-c1cccc2c(C[C@H](NC(=O)C3(C(F)(F)F)CCN(CC(F)(F)F)CC3)C(=O)O)cccc12 [Compound 894]
7.00 to 8.00 | < 6.00 | O=C(O)[C@H](Cc1cccc2c(-c3ccc(CN4CCCCC4)cn3)cccc12)NC(=O)C1(C(F)(F)F)CCN(CC(F)F)CC1 [Compound 896]
> 8.00 | < 6.00 | O=C(O)[C@H](Cc1cccc2c(-c3ncc(CN4CCCCC4)cc3C3CC3)cccc12)NC(=O)C1(C(F)(F)F)CCN(CC(F)F)CC1 [Compound 898]
> 8.00 | < 6.00 | Cc1cc(CN2CCC(C(F)(F)F)CC2)cnc1-c1cccc2c(C[C@H](NC(=O)C3(C(F)(F)F)CCN(C4COC4)CC3)C(=O)O)cccc12 [Compound 900]
> 8.00 | < 6.00 | Cc1cc(CN2CCC(C)(C)CC2)cnc1-c1cccc2c(C[C@H](NC(=O)C3(C(F)(F)F)CCN(CC(F)F)CC3)C(=O)O)cccc12 [Compound 902]
7.00 to 8.00 | < 6.00 | O=C(O)[C@H](Cc1cccc2c(-c3ccc(CN4CCCCC4)cn3)cccc12)NC(=O)C1(C(F)(F)F)CCN(CC(F)(F)F)CC1 [Compound 903]
> 8.00 | 6.00 to 7.00 | O=C(O)[C@H](Cc1cccc2c(-c3ncc(CN4CCCC5(CC5)C4)c4ccccc34)cccc12)NC(=O)C1(C(F)(F)F)CCN(CC(F)(F)F)CC1 [Compound 904]
